# Earlier results as cited in patent US11559519B2, “Tizanidine therapy system” (MEDRx Co., Ltd., priority 2018, dated 2023).
# Settings: multiple dose, placebo-controlled clinical studies
smiles,measurement,setting,value
Clc1ccc2nsnc2c1NC1=NCCN1 [tizanidine],sedation rated as severe,,10%
same,patients who reported sedation as an adverse event,patients receiving any dose,48%
